Laboratory results from patent publication US7671084B2 (Wyeth, priority 2004, dated 2010).

Legend:
human ERα = biological target: T1, human ERα (Homo sapiens, UniProt P03372); experiment: Competition with [3H]-17β-estradiol for binding to ERα; details: ligand binding domain of human ERα in E. coli crude lysate, 2 nM [3H]-17β-estradiol, 5-15 hours at room temperature; read-out: ERα (nM) IC50
T1 construct: made in house; host or cells: E. coli (crude lysate)
T1 sequence (P03372 311-547 limits assumed): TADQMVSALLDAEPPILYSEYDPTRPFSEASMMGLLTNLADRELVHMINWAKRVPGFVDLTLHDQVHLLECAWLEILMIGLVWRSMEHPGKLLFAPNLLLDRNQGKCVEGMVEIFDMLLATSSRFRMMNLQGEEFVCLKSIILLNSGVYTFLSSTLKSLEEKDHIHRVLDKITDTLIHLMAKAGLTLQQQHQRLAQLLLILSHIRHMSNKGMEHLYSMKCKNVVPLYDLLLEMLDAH
Experimental: Representative examples of the invention were evaluated for their ability to compete with 17β-estradiol for both ERα and ERβ. This test procedure provides the methodology for one to determine whether a particular compound binds to the estrogen receptor (and is therefore “estrogenic”) and whether there is selectivity for ERα or ERβ. The values are shown in the Table infra and are reported as IC50s. 17β-estradiol is included as a standard reference for comparison. The procedure used is briefly described below. A crude lysate of E. coli expressing the estrogen receptor ligand binding domains (D, E, & F) of human ERα or ERβ was prepared. Both receptors and compounds were diluted in 1× Dulbecco's PBS (DPBS) supplemented with 1 mM EDTA. Using a high binding masked microtiter plate, 100 uL of receptor (1 uG/well) was combined with 2 nm [^3H]-17β-estradiol and various concentrations of compound. After between 5 and 15 hours at room temperature, the plates were washed with DPBS/1 mM EDTA and bound radioactivity determined by liquid scintillation counting. The IC50 is defined as the concentration of compound that decreases total 17β-estradiol binding by 50%.

human ERβ = biological target: T2, human ERβ (Homo sapiens, UniProt Q92731); experiment: Competition with [3H]-17β-estradiol for binding to ERβ; details: ligand binding domain of human ERβ in E. coli crude lysate, 2 nM [3H]-17β-estradiol, 5-15 hours at room temperature
T2 construct: made in house; host or cells: E. coli (crude lysate)
Experimental: Representative examples of the invention were evaluated for their ability to compete with 17β-estradiol for both ERα and ERβ. This test procedure provides the methodology for one to determine whether a particular compound binds to the estrogen receptor (and is therefore “estrogenic”) and whether there is selectivity for ERα or ERβ. […] 17β-estradiol is included as a standard reference for comparison. The procedure used is briefly described below. A crude lysate of E. coli expressing the estrogen receptor ligand binding domains (D, E, & F) of human ERα or ERβ was prepared. Both receptors and compounds were diluted in 1× Dulbecco's PBS (DPBS) supplemented with 1 mM EDTA. Using a high binding masked microtiter plate, 100 uL of receptor (1 uG/well) was combined with 2 nm [^3H]-17β-estradiol and various concentrations of compound. After between 5 and 15 hours at room temperature, the plates were washed with DPBS/1 mM EDTA and bound radioactivity determined by liquid scintillation counting. The IC50 is defined as the concentration of compound that decreases total 17β-estradiol binding by 50%.

T2 sequence (Q92731 264-498 limits assumed): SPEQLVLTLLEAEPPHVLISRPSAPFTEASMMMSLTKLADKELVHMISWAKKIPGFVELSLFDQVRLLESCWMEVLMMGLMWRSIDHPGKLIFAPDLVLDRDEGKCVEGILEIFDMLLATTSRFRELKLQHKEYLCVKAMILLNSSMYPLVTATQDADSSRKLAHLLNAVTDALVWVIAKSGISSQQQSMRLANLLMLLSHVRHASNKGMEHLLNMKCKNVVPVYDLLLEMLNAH

Row | SMILES | IC50 (human ERα) [nM] | melting point [°C] | IC50 (human ERβ) [nM]
1 | Oc1ccc2c(c1)COc1c-2cc2ccc(O)cc2c1-c1ccccc1F [Example 38, 7-(2-Fluorophenyl)-5H-dibenzo[c,g]chromene-3,9-diol] | 73 | 240 to 242 | 1.4
2 | Oc1ccc2c(c1)COc1c-2cc2ccc(O)cc2c1-c1cccc(F)c1 [Example 32, 7-(3-Fluorophenyl)-5H-dibenzo[c,g]chromene-3,9-diol] | 93 | 225 to 227 | 3.3
3 | Cc1ccc(-c2c3c(cc4ccc(O)cc24)-c2ccc(O)cc2CO3)cc1 [Example 26, 7-(4-Tolyl)-5H-dibenzo[c,g]chromene-3,9-diol] | 137 | 238 to 240 | 4.1
4 | Oc1ccc2c(c1)COc1c-2cc2ccc(O)cc2c1-c1ccsc1 [Example 31, 7-Thien-3-yl-5H-dibenzo[c,g]chromene-3,9-diol] | 152 | 159 to 161 | 4.1
5 | Cc1c2c(cc3ccc(O)cc13)-c1ccc(O)cc1CO2 [Example 21, 7-Methyl-5H-dibenzo[c,g]chromene-3,9-diol] | 17 | 224 to 226 | 1
6 | Oc1ccc2c(c1)COc1c-2cc2ccc(O)cc2c1-c1cccs1 [Example 30, 7-Thien-2-yl-5H-dibenzo[c,g]chromene-3,9-diol] | 75 | 233 to 236 | 1.4
7 | Oc1ccc2c(c1)COc1c-2cc2ccc(O)cc2c1-c1ccc(Cl)cc1 [Example 28, 7-(4-Chlorophenyl)-5H-dibenzo[c,g]chromene-3,9-diol] | 320 | 239 to 242 | 9.3
8 | Oc1ccc2c(c1)COc1cc3c(Cl)c(O)ccc3cc1-2 [Example 6, 8-Chloro-5H-dibenzo[c,g]chromene-3,9-diol] | 21 | 212 to 214 | 0.53
9 | N#CCc1ccc(-c2c3c(cc4ccc(O)cc24)-c2ccc(O)cc2CO3)cc1 [Example 57, 7-(4-Cyanomethylphenyl)-5H-dibenzo[c,g]chromene-3,9-diol] | 358 | 240 to 242 | 71
10 | COc1cccc(-c2c3c(cc4ccc(O)cc24)-c2ccc(O)cc2CO3)c1 [Example 34, 7-(3-Methoxyphenyl)-5H-dibenzo[c,g]chromene-3,9-diol] | 434 | 220 to 223 | 17
11 | Oc1ccc2c(c1)COc1c-2cc2ccc(O)cc2c1-c1ccco1 [Example 48, 7-(2-Furyl)-5H-dibenzo[c,g]chromene-3,9-diol] | 146 | 158 to 163 | 3.5
12 | CCCCc1c2c(cc3ccc(O)cc13)-c1ccc(O)cc1CO2 [Example 49, 7-Butyl-5H-dibenzo[c,g]chromene-3,9-diol] | 4 | 187 to 189 | 0.8
13 | Oc1ccc2c(c1)COc1c-2cc2ccc(O)cc2c1-c1cccc(Cl)c1 [Example 33, 7-(3-Chlorophenyl)-5H-dibenzo[c,g]chromene-3,9-diol] | 63 | 243 to 246 | 18
14 | Oc1ccc2c(c1)COc1c-2cc2ccc(O)cc2c1-c1cc(Cl)cc(Cl)c1 [Example 45, 7-(3,5-Dichlorophenyl)-5H-dibenzo[c,g]chromene-3,9-diol] | 151 | 252 to 255 | 34
15 | CSc1ccc(-c2c3c(cc4ccc(O)cc24)-c2ccc(O)cc2CO3)cc1 [Example 56, 7-(4-Methylthiophenyl)-5H-dibenzo[c,g]chromene-3,9-diol] | 804 | 195 to 198 | 142
16 | Oc1ccc2c(c1)COc1c-2cc2ccc(O)cc2c1-c1ccc(F)c(F)c1 [Example 36, 7-(3,4-Difluorophenyl)-5H-dibenzo[c,g]chromene-3,9-diol] | 206 | 235 to 237 | 6.2
17 | Cc1ccc(-c2c3c(cc4ccc(O)cc24)-c2ccc(O)cc2CO3)cc1F [Example 41, 7-(3-Fluoro-4-Methylphenyl)-5H-dibenzo[c,g]chromene-3,9-diol] | 655 | 238 to 240 | 28
18 | Oc1ccc2c(c1)COc1cc3cc(O)ccc3cc1-2 [Example 4, 5H-Dibenzo[c,g]chromene-3,9-diol] | 63 | 231 to 233 | 7.9
19 | COc1ccc(-c2c3c(cc4ccc(O)cc24)-c2ccc(O)cc2CO3)cc1 [Example 27, 7-(4-Methoxyphenyl)-5H-dibenzo[c,g]chromene-3,9-diol] | 702 | 200 to 203 | 9.8
20 | Oc1ccc2c(c1)COc1c-2cc2ccc(O)cc2c1-c1ccccc1 [Example 23, 7-Phenyl-5H-dibenzo[c,g]chromene-3,9-diol] | 137 | 225 to 227 | 4.1
21 | COc1ccc(-c2c3c(cc4ccc(O)cc24)-c2ccc(O)cc2CO3)cc1OC [Example 42, 7-(3,4-Dimethoxyphenyl)-5H-dibenzo[c,g]chromene-3,9-diol] | 1820 | 245 to 248 | 22
22 | CCc1ccc(-c2c3c(cc4ccc(O)cc24)-c2ccc(O)cc2CO3)cc1 [Example 62, 7-(4-Ethylphenyl)-5H-dibenzo[c,g]chromene-3,9-diol] | 892 | 203 to 205 | 26
23 | CC(C)(C)c1ccc(-c2c3c(cc4ccc(O)cc24)-c2ccc(O)cc2CO3)cc1 [Example 60, 7-(4-tert-Butylphenyl)-5H-dibenzo[c,g]chromene-3,9-diol] | 3480 | 162 to 165 | 320
